Results reported in ChEMBL document CHEMBL5356948, “Microtubule stabilising peptides: new paradigm towards management of neuronal disorders” (RSC Med Chem, 2023).
Peptide text beside a SMILES is read from it.

Tests used:
Tubulin = assay: Binding affinity to microtubules (unknown origin) assessed as dissociation constant; assay type: protein-complex assay, Homo sapiens
Tubulin (Homo sapiens) [1] = biological target: T1, Tubulin (Homo sapiens) (UniProt P68371+Q9H4B7+P0DPH7+P68366+Q13509+Q71U36+P04350+Q3ZCM7+P07437+P68363+Q9BQE3+Q6PEY2+Q13885+Q9BVA1+Q9BUF5); assay: Binding affinity to tubulin (unknown origin) assessed as binding constant by […] analysis; assay type: protein-complex assay
Tubulin (Homo sapiens) [2] = biological target: T1, Tubulin (Homo sapiens); assay: Binding affinity to microtubules (unknown origin) assessed as binding constant by turbidity assay; assay type: protein-complex assay
Tubulin (Homo sapiens) [3] = biological target: T1, Tubulin (Homo sapiens); assay: Binding affinity to tubulin (unknown origin) assessed as binding constant; assay type: protein-complex assay
[4] = Ratio of drug concentration in CSF to plasma in Sprague-Dawley rat at 15 mg/kg,IV measured after 1 hrs; assay type: ADME, organism-based; conditions: CSF and plasma

Structure (SMILES): CC[C@H](C)[C@H](NC(=O)[C@H](CCC(N)=O)NC(=O)[C@@H](NC(=O)[C@H](CO)NC(=O)CNC(=O)CNC(=O)CNC(=O)[C@@H]1CCCN1C(=O)[C@@H](NC(=O)[C@H](Cc1c[nH]cn1)NC(=O)[C@H](CCCCN)NC(=O)[C@H](CCCCN)NC(=O)CNC(=O)CNC(=O)CNC(=O)[C@@H](N)CS)C(C)C)C(C)C)C(=O)N[C@H](C(=O)N[C@@H](Cc1ccc(O)cc1)C(=O)N[C@@H](CCCCN)C(=O)N1CCC[C@H]1C(=O)N[C@H](C(=O)N[C@@H](CC(=O)O)C(=O)N[C@@H](CC(C)C)C(=O)O)C(C)C)C(C)C
- Kd (Tubulin): 64.1 µM

Structure (SMILES): CC[C@H](C)[C@H](NC(=O)[C@H](CO)NC(=O)[C@@H](NC(=O)[C@H](C)NC(=O)[C@@H](N)CC(N)=O)C(C)C)C(=O)N[C@@H](CCC(N)=O)C(=O)O (H-NAVSIQ-OH)
- Activity (Tubulin (Homo sapiens) [1]): 1.14 10^3/M

Structure (SMILES): CC(C)C[C@H](NC(=O)[C@H](Cc1ccccc1)NC(=O)[C@@H](NC(=O)[C@H](CCC(=O)O)NC(=O)[C@@H](N)CC(N)=O)C(C)C)C(=O)N[C@@H](CC(=O)O)C(=O)N[C@H](C(=O)N[C@@H](CCC(N)=O)C(=O)O)[C@@H](C)O (H-NEVFLDTQ-OH)
- Kb (Tubulin (Homo sapiens) [2]): 2.65 10^4/M

Structure (SMILES): CC(C)C[C@H](NC(=O)[C@@H](N)CO)C(=O)N[C@@H](CCCCN)C(=O)N1CCC[C@H]1C(=O)N[C@@H](C)C(=O)N[C@@H](C)C(=O)N[C@@H](CC(N)=O)C(=O)N[C@@H](CC(C)C)C(=O)N1CCC[C@H]1C(=O)N[C@@H](CC(C)C)C(=O)N[C@@H](CCCNC(=N)N)C(=O)N[C@@H](Cc1ccccc1)C(=O)O (H-SLKPAANLPLRF-OH)
- Kb (Tubulin (Homo sapiens) [3]): 2.35 10^5/M

Structure (SMILES): CC[C@H](C)[C@H](NC(=O)[C@H](CO)NC(=O)[C@@H](NC(=O)[C@@H]1CCCN1C(=O)[C@H](C)NC(=O)[C@@H](N)CC(N)=O)C(C)C)C(=O)N1CCC[C@H]1C(=O)N[C@@H](CCC(N)=O)C(=O)O [DAVUNETIDE]
- Kp at 1 h [4]: 0.138
